Measured values published in patent US20250084095A1, “Aminopyrimidine Derivatives as Cyclin-Dependent Kinase Inhibitors” (Accutar Biotechnology Inc., priority 2023, published 2025).

Legend:
[1] = tested on: Phospho-Rb (Ser807/811) in SW1573-CDK4 KO cells; test: Phospho-Rb expression inhibition in SW1573-CDK4 KO cells quantified by in cell Western; type: cell-based; conditions: Homo sapiens, 24 hours, read-out: SW1573 CDK4 KO pRb IC50
Description: (§1) Parental SW1573 cells were obtained from the American Type Culture Collection (ATCC). CDK4 or CDK6 gene in […] cells was knocked out using the CRISPR-Cas9 technology. First, gRNA complex of CDK4 or CDK6 was prepared with Alt-R CRISPR-Cas9 tracrRNA and crRNA CDK4 (5′-[…]-3′ (SEQ ID NO: 4)) or CDK6 (5′-[…]-3′ (SEQ ID NO. 5)) (IDT-Integrated DNA Technologies), and then ribonucleoprotein (RNP) complex of CDK4 or CDK6 was prepared with respective gRNA complex and Alt-R S.p. Cas9 Nuclease V3 (IDT-Integrated DNA Technologies). Next, 5×10^4/10 μL SWJ1573 cells were electroporated with the CDK4 or CDK6 RNP complex and Alt-R Cas9 Electroporation Enhancer using Neon Transfection System (Thermo Fisher). Cells were then plated in a 96-well plate to select single clones for validation of CDK4 or CDK6 knockout by western blot analysis.
(§2) MCF7 cells were obtained from American Type Culture Collection (ATCC, HTB-22). SW1573-CDK6 KO and SW1573-CDK4 KO cells were generated by the CRISPR-Cas9 technology. All cells were plated in 96-well plates (VWR #10062-900, or Corning #3904) in 90 uL culture medium at a density of 20,000 cells/well in the respective growth medium containing 10% FBS and 1% Penicillin Streptomycin, and then incubated at 37° C. overnight. The following day, the test compound was administered to the cells by using 1000× compound stock solution prepared in DMSO at various concentrations. 1000× compound stock solution was first diluted in culturing medium to 10×, then 10 uL compound medium was added to each well in the cell plates. After administration of the compound, the cells were then incubated at 37° C. for 24 hours. Upon completion, the cells were washed with PBS briefly. 150 uL/well of 4% formaldehyde was added and the plates were incubated at room temperature for 20 mins. The cells were washed with PBS briefly, and permeabilized with 150 uL/well of ice cold 100% methanol for 10 mins. The cells were washed with PBS briefly and blocked with 100 uL/well LI-COR blocking buffer for 1 hr at room temperature with gentle shaking. The cells were incubated overnight at 4° C. with 50 uL primary antibody rabbit anti-Phospho-Rb (Ser807/811) (1: 500, Cell Signaling, #8516) and anti-Rb (1:200, Santa Cruz, sc-73598) diluted in Intercept Blocking Buffer (LI-COR, #927-60001) containing 0.1% Tween 20. The next day, the cells were washed with 200 uL PBS containing 0.1% Tween 20, 5×5 mins at room temperature with gentle shaking, and incubated with 50 uL secondary antibody, IRDye® 800CW Goat anti-Rabbit IgG (1:1000, LI-COR, #926-32211) and IRDye®680RD Goat anti-Mouse IgG (1:1000, LI-COR, #926-68070), in LI-COR blocking buffer with 0.2% Tween 20 for 1 hr at room temperature with gentle shaking. The cells were washed with 200 uL PBS containing 0.1% Tween 20, 5×5 mins at room temperature with gentle shaking. The cells were washed with PBS for 5 mins. 100 uL fresh PBS was added to each well and the plates were imaged on a LI-COR Odyssey CLX plate reader.

[2] = tested on: Phospho-Rb (Ser807/811) in SW1573-CDK6 KO cells; test: Phospho-Rb expression inhibition in SW1573-CDK6 KO cells quantified by in cell Western; type: cell-based; conditions: Homo sapiens, 24 hours, read-out: SW1573 CDK6 KO pRb IC50
Description: as §1, §2

[3] = tested on: Phospho-Rb (Ser807/811) in MCF7 cells; test: Phospho-Rb expression inhibition in MCF7 cells quantified by in cell Western; type: cell-based, human; conditions: Homo sapiens, MCF7, 24 h, 24 hours, in cell Western, read-out: MCF7 pRb IC50
Outline: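 MCF7 cells were seeded at 20,000/well, grown overnight, then treated 24 h at 37 °C with compound dilutions (0.1% DMSO from 1000× stocks). Fixed cells were co-stained for phospho-Rb Ser807/811 and total Rb. Near-infrared dual-channel in-cell Western imaging was the read-out.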

Structure (SMILES)	IC50 [1]	IC50 [2]	IC50 [3]
CC(C)n1c(C2CCC2(F)F)nc2c(F)cc(-c3nc(N[C@@H]4C[C@H]5CO[C@H](O5)[C@H]4O)ncc3Cl)cc21 (stereo partly drawn) [Compound 239, (1S,3R,4S,5R)-3-((5-chloro-4-(2-(2,2-difluorocyclobutyl)-4-fluoro-1-isopropyl-1H-benzo[d]imidazol-6-yl)pyrimidin-2-yl)amino)-6,8-dioxabicyclo[3.2.1]octan-4-ol]	150 to 1000 nM	≤ 40 nM	≤ 40 nM
CC(C)n1c([C@H]2C[C@H]2C(=O)N(C)C)nc2c(F)cc(-c3nc(N[C@@H]4C[C@H]5CO[C@H](O5)[C@H]4O)ncc3Cl)cc21 [Compound 248, (1R,2S)-2-(6-(5-chloro-2-(((1S,3R,4S,5R)-4-hydroxy-6,8-dioxabicyclo[3.2.1]octan-3-yl)amino)pyrimidin-4-yl)-4-fluoro-1-isopropyl-1H-benzo[d]imidazol-2-yl)-N,N-dimethylcyclopropane-1-carboxamide]	> 1000 nM	150 to 1000 nM	40 to 150 nM
CC(C)n1c(C2CC(F)C2)nc2c(F)cc(-c3nc(N[C@@H]4C[C@H]5CO[C@H](O5)[C@H]4O)ncc3Cl)cc21 (stereo partly drawn) [Compound 243, (1S,3R,4S,5R)-3-((5-chloro-4-(4-fluoro-2-((1r,3R)-3-fluorocyclobutyl)-1-isopropyl-1H-benzo[d]imidazol-6-yl)pyrimidin-2-yl)amino)-6,8-dioxabicyclo[3.2.1]octan-4-ol]	> 1000 nM	40 to 150 nM	
